Results: US5814470A, “Melittin-related polypeptides, mixture sets and libraries thereof” (priority 1997, dated 1998)

What was measured:
Staphylococcus aureus = settings: no change in optical density over 18 hours; slightly different conditions; cited from earlier work
[1] = test system: human red blood cells (RBCs); assay: Hemolytic activity (HD50); format: cell-based; settings: one hour at 37° C., OD 414 nm
Description: The hemolytic activities of the polypeptide mixture sets were determined by using human red blood cells (RBCs). The cells were washed three times with phosphate-buffered saline (PBS/35 mM phosphate buffer--0.15M NaCl, pH 7.0) and resuspended in PBS. The hemolytic activity of the polypeptide sets were determined as described in Blondelle et al., Biochem. Biophys. Acta, 1202:331-336 (1993) using 96 well tissue culture plates. In brief, 100 μl of 0.5 percent RBC solution were added to an equal volume of peptides in PBS. The plates were incubated for one hour at 37° C. and the optical density (OD) of the supernatant was measured at 414 nm. The concentration in peptide necessary to lyse 50 percent RBCs (HD50) was then determined for each peptide using a sigmoidal curve fitting method (Graphpad).

[2] = Polypeptide conformation by CD spectroscopy (α-helix content); format: physicochemical; settings: in the presence of 100 mM NaCl, 25° C.
Description: The library of sets of Example 1 was examined for the ability of each set to adopt an α-helical conformation. […] In the presence of 100 mM NaCl, the percent of α-helices varied from 20 to 40 percent.
All measurements were carried out on a Jasco J-720 circular dichroism spectropolarimeter (CD-Eaton, Md.), in conjunction with a Neslab RTE 110 waterbath and temperature controller at 25° C. (Dublin, Calif.). CD spectra were the average of a series of three to seven scans made at 0.2 nm intervals. Ellipticity was determined as means residue ellipticity, θ; the limits of error of measurements at 222 nm were ±500 (deg cm2 dmol^-1). For salt induced aggregation, stock solutions were separately prepared with 150 μM polypeptide sets in buffer (5 mM MOPS-NaOH, 100 mM NaCl).

## Melittin
Staphylococcus aureus
  minimum inhibitory concentration (MIC): 25 µg/mL
[1]
  HD50 (concentration necessary to lyse 50 percent RBCs): 6 µg/mL
[2]
  percent of α-helices (helicity): about 20%
